Experimental data published in patent publication US10071103B2, “Treatments for resistant acne” (VYOME BIOSCIENCES PVT. LTD., priority 2014, dated 2018).
In brackets after ≈: the same amount, converted by molar mass. Entries after “also recorded” stand apart in the source; their conditions may differ. Counter-ions that a name gives are not always drawn.

Tests used:
IL-6 = assay: P. acnes-induced IL-6 release in THP-1 cells (ELISA); assay type: cell-based
Procedure: (§1) Method: Preparation of Stimulant for Inflammation: P. acnes culture suspension was prepared in PBS and the cell number in the suspension was adjusted to approximately 5×10^8 CFU/ml by measuring the cell density using a Densimat. The bacterial suspension was then heat killed at 80° C. for 30 min and stored at −80° C. until further use.
(§2) Cells were seeded in a 96-well format (2×10^5 THP-1 cells per well) in media containing 10% FBS. The cells were stimulated to induce inflammatory cytokines using 3 McFarland equivalent heat-killed P. acnes. Cells in control wells were treated with PBS. One hour after induction with P. acnes, test agents were added to the induced cells at appropriate concentrations to be tested (compound 91 at 25 μg/ml). The plates were incubated at 37° C. for 24 hours. After 24 h, the plates were centrifuged to pellet the cells and the supernatants were collected. The cell culture supernatants thus obtained were analyzed for levels of cytokines (IL-1α, IL-1β, IL-6 and IL-8) by ELISA using R&D Systems kits for individual cytokines following the manufacturer's instructions.
as §1, with “Preparation” for “Method: Preparation”, “stimulant” for “Stimulant”, “inflammation:” for “Inflammation:”
(§3) Cells were seeded in a 96-well format (2×10^5 THP-1 cells per well) in media containing 10% FBS. The cells were stimulated to induce inflammatory cytokines using 3 McFarland equivalent heat-killed P. acnes. Cells in control wells were treated with PBS. One hour after induction with P. acnes, test agents were added to the induced cells at appropriate concentrations (Besifloxacin at 10 and 30 μg/ml; Adapalene at 0.04 and 0.4 μg/ml). The plates were incubated at 37° C. for 24 hours. After 24 h, the plates were centrifuged to pellet the cells and the supernatants were collected. The cell culture supernatants thus obtained were analyzed for cytokine levels (IL-6 and IL-8) by ELISA using R&D Systems kits for individual cytokines following the manufacturer's instructions.

IL-8 = assay: P. acnes-induced IL-8 release in THP-1 cells (ELISA); assay type: cell-based
Procedure: as §1, §2
as §1, with “Preparation” for “Method: Preparation”, “stimulant” for “Stimulant”, “inflammation:” for “Inflammation:”
as §3

IL-1α = assay: P. acnes-induced IL-1α release in THP-1 cells (ELISA); assay type: cell-based; conditions: 25 μg/ml, 100% = P. acnes induced cells
Procedure: as §1, §2

IL-1β = assay: P. acnes-induced IL-1β release in THP-1 cells (ELISA); assay type: cell-based; conditions: 25 μg/ml, 100% = P. acnes induced cells
Procedure: as §1, §2

P. acnes MTCC 1951 = assay: MIC by micro broth dilution (Alamar blue), clindamycin-susceptible P. acnes; assay type: cell-based, Propionibacterium acnes; conditions: for MIC: Cutibacterium acnes, MTCC1951, read-out: MIC Susceptible P. acnes (1951) strain; for Activity / bacterial killing, dose response curve (in words): clindamycin-susceptible MTCC 1951
Procedure: (§4) The plates were incubated at 37° C. for 48 h under anaerobic condition for P. acnes and 37° C. for 24 h for S. aureus The plates were read under Bio-Rad plate reader at 595 nm for optical density to generate the dose-response curves. The MIC of the test compound was recorded by addition of Alamar blue dye.
(§5) P. acnes (MTCC 3297, MTCC 1951& CCARM 9010) are cultured in Brain Heart Infusion (BHI) Broth at 37° C. for 48-72 h under anaerobic condition. The test compounds/formulations are initially diluted with suitable solvent and further diluted with BHI broth to get the required concentrations. Samples (100 μl) of different concentrations (prepared by serial dilution) are added to 96-well plate. To the wells, 100 μl of P. acnes BHI broth culture is added [culture turbidity adjusted against 0.5 McFarland standard (approx 1.5×10^8), and further diluted 100-fold with sterile BHI broth]. In addition Growth Control and Sterility Control are created using 100 μl each of P. acnes BHI broth culture and plain BHI broth, respectively.
(§6) Plates are incubated at 37° C. for 48-72 hrs under anaerobic condition. The plate is read under Bio-Rad plate reader @ 595 nm for optical density to generate the dose-response curves. The MIC of the test compound is recorded by addition of Alamar blue dye.
BHI broth and BHI agar media were prepared as per the manufacturer's instruction and autoclaved at 121° C. for 15 minutes. […] For MIC determination testing, gels are dissolved in the solvent and further diluted with BHI broth. Then, 96 wells plate are filled with 100 μl of BHI broth containing drug with different concentration to get the final concentrations of 0.06, 0.13, 0.25, 0.5, 1 and 2 μg/ml in different lanes (lane 1 to lane 6). Remaining lanes of the 96 well plate are used as growth control and sterility control. Finally, P. acnes culture suspension (approx 1.5×10^6) is added in all the wells except sterility control wells and plate is incubated at 37° C. for 48-72 h under anaerobic condition. At the end of 72 h, Alamar blue solution (20 μl) is added into the wells and incubated at 37° C. for 2 h. Plate is visualized for bacterial inhibitions and MIC values of the tested samples are determined. […]

P. acnes CCARM 9010 = assay: MIC by micro broth dilution (Alamar blue), clindamycin-resistant/nonresponsive P. acnes; assay type: cell-based, Propionibacterium acnes; conditions: for MIC: Cutibacterium acnes, CCARM9010, read-out: MIC Resistant P. acnes (9010) strain; for Activity / bacterial killing, dose response curve (in words): clindamycin-nonresponsive CCARM 9010
Procedure: as §4, §5, §6

S. aureus MTCC 6908 = assay: MIC by micro broth dilution, laboratory S. aureus strain; assay type: cell-based, Staphylococcus aureus; conditions: Staphylococcus aureus, MTCC6908; Table 6; read-out: MIC Susceptible S. aureus (6908) strain
Procedure: as §4
S. aureus MTCC 6908 were grown in Tryptone Soya Agar (TSA) at 37° C. for 24 hours. […] Plates were incubated at 37° C. for 24 hours. […] (2) Zone of Inhibition (ZOI): S. aureus MTCC 6908 were grown in Tryptone Soya Agar (TSA) at 37° C. for 24 hours. BHA plates are spreaded with 100 μl of 0.5 McFarland standard equal bacterial suspension. Test samples (drugs/formulations) were dissolved in water/solvent based on the solubility. Sterile disc (6 mm) were loaded with 10 μl of test samples (of various concentration of drug), and were placed above the spreaded plates. Plates were incubated at 37 C for 24 h, followed by ZOI measurement. (3) Time Kill Assay: 0.5 McFarland standard equal S. aureus culture was prepared in sterile water. Besifloxacin gels were diluted in Tryptone Soya broth (TSB) to get final concentration of 25 μg/ml. Then 900 μl of S. aureus 0.5 McFarland standard equal culture and 100 μl of diluted Besifloxacin gel was mixed to obtain final Besifloxacin concentration, 2.5 μl g/ml. Total reaction mixture (1 ml) was incubated at 37° C. in a tube rotator. After 2 and 6 h exposure, bacterial suspension was placed on Tryptone soya agar plate and incubated at 37° C. for 24 h.
Inoculated plates were incubated at 37° C. for 24 hours.

E. coli DNA gyrase = molecular target: T1, E. coli DNA gyrase (Escherichia coli, UniProt P0AES4+P0AES6); assay: DNA gyrase super-coiling activity assay (Topogen kit, relaxed pHOT1 plasmid); assay type: biochemical; conditions: 1 μM and 2.5 μM
T1 construct: purchased Topogen Inc
Procedure: DNA super-coiling activity was assayed using DNA gyrase assay kit (Topogen Inc.) with relaxed pHOT1 E. coli plasmid DNA according to manufacturer's protocol. The standard reaction mixture (20 μl) contained 35 mM Tris-HCl (pH 7.5), 24 mM KCl, 4 mM MgCl2, 2 mM dithiothreitol, 1.8 mM spermidine, 1 mM ATP, 6.5% glycerol, 0.1 mg/ml bovine serum albumin (BSA), 10 μg/ml relaxed pHOT1 plasmid DNA and 1 U of DNA gyrase. The reaction mixture was incubated at 37° C. for 1 h in presence of selected compounds/fluoroquinolone at different concentrations. The reaction was terminated by addition of ⅕ volume of loading dye (4 μl) followed by proteinase K (50 μg/ml) and again incubated at 37° C. for half an hour. 20 μl chloroform/isoamyl alcohol (24:1) was added to each tube and vortexed briefly. Thereafter, the blue aqueous phase was separated out and analyzed by 1% agarose gel electrophoresis. The gel was stained by ethidium bromide for half an hour and destained with water for 15 mins. The gel was then visualized in a trans-illuminator and photographed.

THP-1 cells = assay: Viability of THP-1 cells under treatment; assay type: cell-based; conditions: Example 61; each tested condition
[1] = pH dependent solubility of besifloxacin.HCl; assay type: physicochemical; conditions: pH of about 4.5 or below solubilizes the drug
Text: Preparation of drug-loaded (suspended form) gel via a conventional method usually leads to exposure of the drug to a wide range of pH conditions, which may lead to, in some instances, solubilization of the drug, and then reprecipitation. This solubilization-reprecipitation phenomenon in most cases leads to change in original particle size, impurity profile or crystal pattern, or others. […] The solubilized besifloxacin then, upon increase in pH (during formulation preparation), reprecipitates, which may result in one or more unwanted changes.

[2] = 25 μg/ml, THP-1 cells, 100% = P. acnes induced cells
[3] = Cells + P. acnes + 0.4 μg/ml (positive control), THP-1 cells, 24 h, Table 70
[4] = Cells + P. acnes + Dexamethasone 0.4 μg/ml, THP-1 cells, Table 71

T1 sequence (P0AES4 whole entry, one chain of several): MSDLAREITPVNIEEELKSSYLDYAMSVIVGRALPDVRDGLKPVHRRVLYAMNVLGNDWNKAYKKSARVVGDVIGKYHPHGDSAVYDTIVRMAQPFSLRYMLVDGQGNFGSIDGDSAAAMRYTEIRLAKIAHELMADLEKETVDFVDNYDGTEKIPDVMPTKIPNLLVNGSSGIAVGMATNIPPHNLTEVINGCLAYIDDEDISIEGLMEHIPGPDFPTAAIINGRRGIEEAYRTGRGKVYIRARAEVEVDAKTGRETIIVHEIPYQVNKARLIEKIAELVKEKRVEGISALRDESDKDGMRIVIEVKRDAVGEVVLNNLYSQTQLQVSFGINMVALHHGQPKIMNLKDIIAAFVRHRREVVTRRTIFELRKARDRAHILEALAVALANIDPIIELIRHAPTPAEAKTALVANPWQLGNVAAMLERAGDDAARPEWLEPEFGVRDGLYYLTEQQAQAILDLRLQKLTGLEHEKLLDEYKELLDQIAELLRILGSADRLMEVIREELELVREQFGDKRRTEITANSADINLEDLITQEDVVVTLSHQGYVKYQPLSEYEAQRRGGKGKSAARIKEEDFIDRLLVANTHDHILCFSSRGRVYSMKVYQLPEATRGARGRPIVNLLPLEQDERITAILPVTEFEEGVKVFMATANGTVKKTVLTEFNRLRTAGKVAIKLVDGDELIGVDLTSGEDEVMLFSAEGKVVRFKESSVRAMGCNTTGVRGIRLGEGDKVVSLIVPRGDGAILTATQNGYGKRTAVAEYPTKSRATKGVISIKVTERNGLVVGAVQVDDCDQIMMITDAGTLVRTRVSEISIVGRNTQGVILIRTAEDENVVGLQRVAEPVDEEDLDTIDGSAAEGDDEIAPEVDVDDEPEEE

SMILES	MIC (P. acnes MTCC 1951) [µg/mL]	Activity / bacterial killing, dose response curve (in words) (P. acnes MTCC 1951)	MIC (P. acnes CCARM 9010) [µg/mL]	Activity / bacterial killing, dose response curve (in words) (P. acnes CCARM 9010)	MIC (S. aureus MTCC 6908) [µg/mL]	Inhibition of super-coiling activity of DNA gyrase (in words) (E. coli DNA gyrase)	further results
C[C@@H]1C[C@H]2[C@@H]3CCC4=CC(=O)C=C[C@]4(C)[C@@]3(F)[C@@H](O)C[C@]2(C)[C@@]1(O)C(=O)CO [Dexamethasone]	–	–	–	–	–	–	Percentage reduction in P. acnes induced IL-6 release (IL-6; [2]): 99.54%; Expression of Cytokines IL-6 (pg/ml) Mean (IL-6; [3]): 2.15 pg/mL; Expression of Cytokines IL-6 (pg/ml) Mean (IL-6; [4]): 2.15 pg/mL; Reduction in IL-6 levels (IL-6; Example 61, positive control): ~100%; Percentage reduction in P. acnes induced IL-8 release (IL-8; [2]): 58.78%; Expression of Cytokines IL-8 (pg/ml) Mean (IL-8; [3]): 1080.8 pg/mL; Expression of Cytokines IL-8 (pg/ml) Mean (IL-8; [4]): 1080.76 pg/mL; Percentage reduction in P. acnes induced IL-1α release (IL-1α): 53.83%; Percentage reduction in P. acnes induced IL-1β release (IL-1β): 64.73%
Cc1ncc([N+](=O)[O-])n1CC(O)CCN1CCN(c2cc3c(cc2F)c(=O)c(C(=O)O)c2n3C(C)S2)CC1 (stereo not shown) [Compound 116, 6-Fluoro-7-{4-[3-hydroxy-4-(2-methyl-5-nitro-imidazol-1-yl)-butyl]-piperazin-1-yl}-1-methyl-4-oxo-4H-2-thia-8b-aza-cyclobuta[a]naphthalene-3-carboxylic acid]	0.4 (≈ 0.732 µM)	more than double MIC values	0.8 (≈ 1.46 µM)	more than double MIC values	1.64 (≈ 3 µM)	able to inhibit the super-coiling activity; also recorded: highly potent; also recorded: best gyrase inhibiting activity	–
Cc1oc(=O)oc1CN1CCN(c2cc3c(cc2F)c(=O)c(C(=O)OC(CCl)Cn2c([N+](=O)[O-])cnc2C)c2n3C(C)S2)CC1 (stereo not shown) [Compound 94, 6-Fluoro-1-methyl-7-[4-(5-methyl-2-oxo-[1,3]dioxol-4-ylmethyl)-piperazin-1-yl]-4-oxo-4H-2-thia-8b-aza-cyclobuta[a]naphthalene-3-carboxylic acid 1-chloromethyl-2-(2-methyl-5-nitro-imidazol-1-yl)-ethyl ester]	3 (≈ 4.52 µM)	hardly showed any activity	3 (≈ 4.52 µM)	hardly showed any activity	2.8 (≈ 4.22 µM)	able to inhibit the super-coiling activity	–
N[C@@H]1CCCCN(c2c(F)cc3c(=O)c(C(=O)O)cn(C4CC4)c3c2Cl)C1 [Besifloxacin.HCl, besifloxacin hydrochloride]	–	–	–	–	–	–	Effect on P. acnes-induced IL-6 levels (in words) (IL-6; Example 61, besifloxacin 10, 30 μg/ml, adapalene 0.04, 0.4 μg/ml, hydrochloride): significant dose-dependent decrease; also recorded: impart individual anti-inflammatory effects; Reduction in IL-6 levels compared to untreated control (IL-6; besifloxacin.HCl alone at 10 μg/ml): approximately 40%; Effect on P. acnes-induced IL-8 levels (in words) (IL-8; Example 61, besifloxacin 10, 30 μg/ml, adapalene 0.04, 0.4 μg/ml): does not show similar effect; Cell viability compared to untreated cells (THP-1 cells): over 80%; Solubility (in words) [1]: pH dependent solubility
Cc1ncc([N+](=O)[O-])n1CC(O)CCCCN1CCN(c2cc3c(cc2F)c(=O)c(C(=O)O)c2n3C(C)S2)CC1 (stereo not shown) [Compound 115, 6-Fluoro-7-{4-[5-hydroxy-6-(2-methyl-5-nitro-imidazol-1-yl)-hexyl]-piperazin-1-yl}-1-methyl-4-oxo-4H-2-thia-8b-aza-cyclobuta[a]naphthalene-3-carboxylic acid]	0.4 (≈ 0.696 µM)	more than double MIC values	0.8 (≈ 1.39 µM)	more than double MIC values	1.6 (≈ 2.78 µM)	able to inhibit the super-coiling activity	–
Cc1ncc([N+](=O)[O-])n1CC(CCl)OC(=O)CN1CCN(c2cc3c(cc2F)c(=O)c(C(=O)O)c2n3C(C)S2)CC1 (stereo not shown) [Compound 90, 7-{4-[1-Chloromethyl-2-(2-methyl-5-nitro-imidazol-1-yl)-ethoxycarbonylmethyl]-piperazin-1-yl}-6-fluoro-1-methyl-4-oxo-4H-2-thia-8b-aza-cyclobuta[a]naphthalene-3-carboxylic acid]	1.7 (≈ 2.79 µM)	ineffective	0.9 (≈ 1.48 µM)	shows activity	1 (≈ 1.64 µM)	able to inhibit the super-coiling activity	Activity / bacterial killing, dose response curve (in words) (P. acnes MTCC 1951; listed as compound 90): not active; Activity / bacterial killing, dose response curve (in words) (P. acnes CCARM 9010; listed as compound 90): promising activity
